pIC50: −log10 of the molar value.
Key:
[1] = target: HIV-1 Rev protein RNA recognition element (RRE); assay: Solid-phase assay: displacement of fluorescent Rev peptide from immobilized RRE; assay type: binding; conditions: for (e) Ratio (c)/(b): IC50 with polyA-polyU divided by IC50 without competitor, proportional to RRE selectivity; for change of ratio (c)/(b) upon guanidinylation: decrease = more selective for the RRE than amino precursor; for activity in the presence of competing nucleic acids: competing DNA / tRNA
Excerpt: To facilitate the discovery of active guanidinoglycosides an assay system using HIV-1 response elements can be used. For example, RRE-specific binders as well as TAR specific binders can be identified using the methods of the present invention. The present invention provides a rapid screening assay and method depicted in FIG. 4. The Rev-RRE assay relies on the release of a fluorescently tagged Rev fragment from an immobilized RRE-Rev complex and can be performed under various stringency levels. The assay can be conducted in the presence of competing RNA molecules, other potential cellular targets, or cellular extracts. Only high affinity ligands can effectively compete with the bound Rev34-50 peptide (Kd is approximately 1 nM), thus releasing the highly fluorescent molecules into solution. Non-selective binders will be scavenged by competitor molecules present in solution.
In one embodiment, the present invention provides an assay for identifying a test compound which binds to RRE. The assay includes an immobilized RRE, a detectably labeled Rev, and a test compound. A test compound that liberates the labeled Rev due to competitive binding to the RRE results in an increase in the labeled Rev in the supernatant of the assay. Accordingly, following incubation of immobilized RRE, a labeled Rev, and a test compound, the supernatant is measured and the amount of label in the supernatant is determined. The amount of label in the supernatant is indicative of the degree or ability of the test compound to bind to the RRE or REV polypeptide. By comparing the amount of label in the supernatant with the amount in a control or standard sample, one can identify a test compound which effectively competes with the Rev for binding to RRE. […] In the depicted embodiment of FIG. 4 the ternary complex containing a fluorescently tagged Rev peptide bound to an immobilized RRE is incubated with the test compound (e.g., a potential competitor, binding agent or inhibitor)under conditions and in the presence of competing RNA molecules n a microcentrifuge filter tube. After incubation, the mixture is filtered and the filtrate is illuminated. In the presence of a strong and selective RRE binder, the fluorescently labeled peptide will be released from the beads into solution and the filtrate will become fluorescent.
The basic principle of the assay systems used to identify compounds that inhibit binding of Rev to RRE or compounds that interact with RRE involves preparing a reaction mixture containing the target (e.g., RRE) and the binding partner (e.g., labeled-Rev) under conditions and for a time sufficient to allow the two to interact and bind, thus form a complex. In order to test a compound for inhibitory activity, the reaction mixture is prepared in the presence and absence of the test compound. The test compound can be initially included in the reaction mixture, or can be added at a time subsequent to the addition of the RRE and its binding partner, Rev. Control reaction mixtures are incubated without the test compound or with a placebo. The presence of labeled-Rev that is not bound to RRE over that amount found in a control or standard sample is indicative of a test compound that competes with Rev for binding to RRE.
A novel solid-phase assembly was used to evaluate the RNA specificity of the new derivatives. This assay relies on the displacement of a fluorescent Rev peptide from a solid-phase immobilized RRE and can be performed in the presence of competing nucleic acids. Table 4 (columns b-d) summarizes the IC50 values determined by this method. By comparing IC50 values measured in the absence of any competitors to the values measured in the presence of DNA or RNA, a quantitative measure for the relative selectivity of each ligand can be made. Aminoglycosides have a substantial affinity to poly A-poly U duplex RNA (compare column b to c, Table 4). […] For neomycin, this ratio increases upon guanidinylation, indicating a lower RRE selectivity. […]

[2] = target: HIV-1 Rev protein RNA recognition element (RRE); assay: Fluorescence anisotropy: displacement of fluorescein-labeled Rev peptide from the RRE in solution; assay type: binding; conditions: for pIC50: Fluorescence Anisotropy (Table 4), read-out: IC50 (a) Anisotrophy; for IC50: Fluorescence Anisotropy; for increase in inhibitory activity upon guanidinylation relative to the parent compound: fluorescence anisotropy IC50, guanidinylated vs parent
Excerpt: In a modification of the above assay, the solid support aspect of the above embodiment is removed. The biophysical characteristics of potential inhibitory test compounds can be detected by fluorescence anisotropy as depicted in FIG. 5. The RRE-bound fluorescent peptide has a slower Brownian tumbling motion relative to the free peptide in solution. Upon displacement of the fluorescently labeled Rev from the RRE by a competing inhibitor, a decrease in the anisotropy value is observed. The displacement of the labeled-Rev can be followed by monitoring the anisotropy at the emission wavelength of the Rev34-50-bound fluorophore.
The HIV-1 Rev-RRE interaction was used to examine the impact of guanidinylation upon RNA binding, and to probe the potential antiviral activity of these compounds. The binding of Rev to the RRE (Rev response element) is responsible for the export of unspliced and singly spliced HIV genomic RNA out of the host nucleus. This essential protein-RNA interaction remains an important, and nonutilized, therapeutic target. The high-affinity Rev binding site on the RRE has been localized to the purine-rich bulge. The binding of Rev to the RRE is governed by the arginine-rich fragment, Rev34-50. Key guanidinium groups make direct contacts with the RNA platform and are essential for the specific binding of Rev to the RRE. Fluorescence anisotropy has been employed to determine the affinity of the new derivatives to the RRE in solution. The RRE-bound fluorescent Rev peptide has a slower Brownian tumbling motion relative to the free peptide. Upon displacement of the fluorescein-labeled Rev peptide from the RRE by an inhibitor, a decrease in the anisotropy value is observed. Table 4 (column a) compares the IC50 values of the guanidinoglycosides to the aminoglycosides. Guanidinylation of kanamycin A, kanamycin B, and tobramycin results in a greater than 10-fold increase in inhibitory activity relative to the parent compounds. A 5-fold increase in activity is observed upon guanidinylation of neomycin B and paromomycin.

HIV-1 = assay: Inhibition of viral replication in HIV-1-infected CD4+ HeLa cells (plaque formation); assay type: cell-based
Description: By converting aminoglycosides into guanidinoglycosides the biological activities of these glycosides were dramatically affected. Neomycin B was reported to be an in vivo and in vitro inhibitor of Rev-RRE binding, as well as an effective inhibitor of HIV-1 replication in vivo. The ability of guanidinoneomycin B and guanidinotobramycin to inhibit viral replication in HIV-1-infected CD4+ HeLa cells was measured and compared to the antiviral activities of neomycin B and tobramycin (FIG. 6). As evidenced by the dose-dependent decrease in plaque formation, the guanidinoglycosides inhibit HIV replication with activities approximately 100 times higher than their amino precursors (FIG. 6). The antiviral activity of the guanidinoglycosides may be related to their ability to bind the RRE with high affinity and specificity, thus preventing the HIV-1 Rev-RRE interaction and viral replication.

[3] = 15 ug/mL plasmid DNA (pGEM), read-out: IC50 (d) Solid-Phase + DNA
[4] = 15 ug/mL polyA-polyU duplex RNA, read-out: IC50 (c) Solid-Phase + poly A polyU
[5] = Solid-phase, no competitor (Table 4), read-out: IC50 (b) Solid-Phase
[6] = amino form of the glycoside (Table 3), read-out: IC50 (uM) amino form
[7] = Solid Phase Assay, competing DNA (Table 2), read-out: IC50 with DNA
[8] = Solid Phase Assay, competing tRNA (Table 2), read-out: IC50 with tRNA
[9] = Solid Phase Assay, no competitor (Table 2), read-out: IC50
[10] = guanidino form of the glycoside (Table 3), read-out: IC50 (uM) guandino form

Compound | pIC50 [1, 3] | pIC50 [1, 4] | (e) Ratio (c)/(b) [1] | pIC50 [1, 5] | change of ratio (c)/(b) upon guanidinylation [1] | pIC50 [2] | IC50 [2, 6] [µM] | increase in inhibitory activity upon guanidinylation relative to the parent compound [2] [fold] | pIC50 [1, 7] | pIC50 [1, 8] | pIC50 [1, 9] | activity in the presence of competing nucleic acids ([1]; solid phase assay) | IC50 [2, 10] [µM] | inhibition of HIV replication, activity relative to parent aminoglycoside (HIV-1) | more active when compared to tobramycin that has not been guanidinylated ([1]; solid phase assay)
NC[C@H]1O[C@H](O[C@H]2[C@H](O)[C@@H](O[C@H]3O[C@H](CO)[C@@H](O)[C@H](N)[C@H]3O)[C@H](N)C[C@@H]2N)[C@H](O)[C@@H](O)[C@@H]1O [KanamycinA, Kanamycin A] | 3.12 | 2.89 | 1.9 | 3.15 | decreases | 3.12 | 100 |  |  |  |  |  |  |  | 
NC[C@H]1O[C@H](O[C@H]2[C@H](O)[C@@H](O[C@H]3O[C@H](CO)[C@@H](O)[C@H](N)[C@H]3O)[C@H](N)C[C@@H]2N)[C@H](N)[C@@H](O)[C@@H]1O [KanamycinB, Kanamycin B] | 4.05 | 3.80 | 2.0 | 4.10 | decreases | 4.10 |  |  |  |  |  |  |  |  | 
NC[C@@H]1O[C@H](O[C@H]2[C@@H](O)[C@H](O[C@@H]3[C@@H](O)[C@H](N)C[C@H](N)[C@H]3O[C@H]3O[C@H](CN)[C@@H](O)[C@H](O)[C@H]3N)O[C@@H]2CO)[C@H](N)[C@@H](O)[C@@H]1O [Neomycin B, Neomycin] | 5.10 | 4.80 | 2.7 | 5.22 | increases | 5.22 | 1 | 5 |  |  |  |  |  |  | 
NC[C@@H]1O[C@H](O[C@H]2[C@@H](O)[C@H](O[C@@H]3[C@@H](O)[C@H](N)C[C@H](N)[C@H]3O[C@H]3O[C@H](CO)[C@@H](O)[C@H](O)[C@H]3N)O[C@@H]2CO)[C@H](N)[C@@H](O)[C@@H]1O [Paromomycin] | 4.22 | 3.96 | 2.0 | 4.26 | decreases | 4.19 |  | 5 |  |  |  |  |  |  | 
NC[C@H]1O[C@H](O[C@H]2[C@H](O)[C@@H](O[C@H]3O[C@H](CO)[C@@H](O)[C@H](N)[C@H]3O)[C@H](N)C[C@@H]2N)[C@H](N)C[C@@H]1O [Tobramycin] | 4.30 | 3.85 | 3.1 | 4.35 | decreases | 4.36 | 10 |  | 4.26 | 5.96 | 4.30 | significantly lower activity in the presence of tRNA |  |  | 
NC(N)=NC[C@@H]1O[C@H](O[C@H]2[C@H](O)[C@@H](O[C@H]3O[C@@H](CO)[C@H](O)[C@@H](N=C(N)N)[C@@H]3O)[C@H](N=C(N)N)C[C@@H]2N=C(N)N)[C@@H](O)[C@H](O)[C@H]1O [guanidino-kanamycinA, Guanidino Kanamycin A] | 4.26 | 4.22 | 1.2 | 4.30 |  | 4.19 |  |  |  |  |  |  | 8 |  | 
N=C(N)NCC1OC(OC2C(NC(=N)N)CC(NC(=N)N)C(OC3OC(CO)C(O)C(NC(=N)N)C3O)C2O)C(NC(=N)N)C(O)C1O (centres unmarked) [guanidino-kanamycinB, Guanidino Kanamycin B] | 5.46 | 5.33 | 1.6 | 5.52 |  | 5.46 |  |  |  |  |  |  |  |  | 
N=C(N)NC[C@@H]1O[C@H](O[C@H]2[C@@H](O)[C@H](O[C@@H]3[C@@H](O)[C@H](NC(=N)N)C[C@H](NC(=N)N)[C@H]3O[C@H]3O[C@H](CNC(=N)N)[C@@H](O)[C@H](O)[C@H]3NC(=N)N)O[C@@H]2CO)[C@H](NC(=N)N)[C@@H](O)[C@@H]1O [guanidino-neomycin B, Guanidino Neomycin] | 6.05 | 5.35 | 5.6 | 6.10 |  | 5.89 |  |  |  |  |  |  | 0.2 | approximately 100 times | 
N=C(N)NCC1OC(OC2C(CO)OC(OC3C(O)C(NC(=N)N)CC(NC(=N)N)C3OC3OC(CO)C(O)C(O)C3NC(=N)N)C2O)C(NC(=N)N)C(O)C1O (centres unmarked) [guanidino-paromomycin, Guanidino Paromomycin] | 4.80 | 4.70 | 1.4 | 4.85 |  | 4.74 |  |  |  |  |  |  |  |  | 
N=C(N)NCC1OC(OC2C(NC(=N)N)CC(NC(=N)N)C(OC3OC(CO)C(O)C(NC(=N)N)C3O)C2O)C(NC(=N)N)CC1O (centres unmarked) [guanidino-tobramycin] | 5.46 | 5.30 | 1.7 | 5.52 |  | 5.42 |  |  | 5.52 | 5.46 | 5.60 | approximately the same activity in the presence of both competing DNA and tRNA | 0.65 | approximately 100 times | about 20 fold
